Laboratory results reported in US8471005B2 (Cephalon, Inc., priority 2008, dated 2013).
Like-named read-outs stand apart in the source and are kept apart here.

What was measured:
[1] = target: T1, ALK (Homo sapiens, UniProt Q9UM73); assay: ALK Kinase Assay (ELISA/TRF, PLC-γ substrate); type: biochemical; details: read-out: ALK Potency
T1 construct: host or cells: baculovirus expression system
Procedure, shortened: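 First, plates are coated with substrate (phospholipase C-γ, 10 μg/mL, TBS). Next, 30 ng/ml ALK initiates phosphorylation for 15 min at 37° C. Then Eu-N1 PT66 antibody is added for detection, and a nonlinear dose-response fit of percent inhibition yields IC50.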

[2] = target: T2, JAK2 (Homo sapiens, UniProt O60674); assay: Recombinant Human JAK2 Kinase Assay (TRF); type: biochemical; details: read-out: JAK2 Potency
T2 construct: host or cells: baculovirus expression system
Procedure, shortened: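 TRF read-out: Eu-N1 PY100 anti-phosphotyrosine antibody detects product. Enzyme is baculovirus-expressed JAK2 at 15 ng/ml; substrate is a biotinyl 15-mer peptide bound to Neutravidin-coated wells. Buffer 20 mM HEPES pH 7.2, 0.2 μM ATP, 1 mM MnCl2, 0.1% BSA, 2.5% DMSO final; 20 min, RT.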

[3] = ALK kinase inhibition, 1 μM ATP
[4] = JAK2 kinase inhibition, 0.2 μM ATP

T1 sequence (Q9UM73 19-1620): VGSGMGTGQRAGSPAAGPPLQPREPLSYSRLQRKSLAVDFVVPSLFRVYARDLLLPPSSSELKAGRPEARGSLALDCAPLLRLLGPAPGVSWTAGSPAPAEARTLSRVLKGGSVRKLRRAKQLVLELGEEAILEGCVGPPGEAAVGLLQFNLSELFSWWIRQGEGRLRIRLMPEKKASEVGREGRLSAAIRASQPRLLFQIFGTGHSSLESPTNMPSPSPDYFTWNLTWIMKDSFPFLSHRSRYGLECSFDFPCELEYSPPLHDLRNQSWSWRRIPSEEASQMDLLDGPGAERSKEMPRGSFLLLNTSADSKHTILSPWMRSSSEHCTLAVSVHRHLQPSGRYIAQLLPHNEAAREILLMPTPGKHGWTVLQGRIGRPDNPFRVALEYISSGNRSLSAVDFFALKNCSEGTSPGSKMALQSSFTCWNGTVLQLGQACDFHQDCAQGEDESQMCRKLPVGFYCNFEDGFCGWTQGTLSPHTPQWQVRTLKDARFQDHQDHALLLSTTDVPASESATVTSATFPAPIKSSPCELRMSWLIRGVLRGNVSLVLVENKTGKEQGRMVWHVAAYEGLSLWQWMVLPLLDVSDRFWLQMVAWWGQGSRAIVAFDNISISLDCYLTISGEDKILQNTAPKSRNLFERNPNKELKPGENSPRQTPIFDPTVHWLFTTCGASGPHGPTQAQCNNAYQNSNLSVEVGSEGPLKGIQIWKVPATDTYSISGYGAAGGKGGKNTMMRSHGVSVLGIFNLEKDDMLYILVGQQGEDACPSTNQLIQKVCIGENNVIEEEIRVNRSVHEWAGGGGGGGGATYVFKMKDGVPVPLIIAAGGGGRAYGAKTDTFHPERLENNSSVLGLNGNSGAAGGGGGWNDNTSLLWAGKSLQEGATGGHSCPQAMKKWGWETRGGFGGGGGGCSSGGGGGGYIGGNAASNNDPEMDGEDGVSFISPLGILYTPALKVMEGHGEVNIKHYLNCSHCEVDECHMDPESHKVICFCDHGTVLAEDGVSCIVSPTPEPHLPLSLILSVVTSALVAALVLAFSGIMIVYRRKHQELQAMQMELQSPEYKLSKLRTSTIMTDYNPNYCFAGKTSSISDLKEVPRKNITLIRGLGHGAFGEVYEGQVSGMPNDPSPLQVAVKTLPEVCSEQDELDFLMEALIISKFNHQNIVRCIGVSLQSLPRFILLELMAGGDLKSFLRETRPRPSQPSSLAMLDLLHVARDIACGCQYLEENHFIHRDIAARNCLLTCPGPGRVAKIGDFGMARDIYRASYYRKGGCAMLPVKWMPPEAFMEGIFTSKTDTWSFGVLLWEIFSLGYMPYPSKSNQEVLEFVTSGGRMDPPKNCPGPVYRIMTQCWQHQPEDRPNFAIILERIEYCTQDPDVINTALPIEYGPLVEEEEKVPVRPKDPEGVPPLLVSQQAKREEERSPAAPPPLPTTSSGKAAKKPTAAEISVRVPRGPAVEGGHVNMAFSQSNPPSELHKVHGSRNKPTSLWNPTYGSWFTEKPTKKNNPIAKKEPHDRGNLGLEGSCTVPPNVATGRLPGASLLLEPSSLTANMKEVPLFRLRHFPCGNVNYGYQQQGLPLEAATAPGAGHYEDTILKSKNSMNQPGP
T2 sequence (O60674 whole entry): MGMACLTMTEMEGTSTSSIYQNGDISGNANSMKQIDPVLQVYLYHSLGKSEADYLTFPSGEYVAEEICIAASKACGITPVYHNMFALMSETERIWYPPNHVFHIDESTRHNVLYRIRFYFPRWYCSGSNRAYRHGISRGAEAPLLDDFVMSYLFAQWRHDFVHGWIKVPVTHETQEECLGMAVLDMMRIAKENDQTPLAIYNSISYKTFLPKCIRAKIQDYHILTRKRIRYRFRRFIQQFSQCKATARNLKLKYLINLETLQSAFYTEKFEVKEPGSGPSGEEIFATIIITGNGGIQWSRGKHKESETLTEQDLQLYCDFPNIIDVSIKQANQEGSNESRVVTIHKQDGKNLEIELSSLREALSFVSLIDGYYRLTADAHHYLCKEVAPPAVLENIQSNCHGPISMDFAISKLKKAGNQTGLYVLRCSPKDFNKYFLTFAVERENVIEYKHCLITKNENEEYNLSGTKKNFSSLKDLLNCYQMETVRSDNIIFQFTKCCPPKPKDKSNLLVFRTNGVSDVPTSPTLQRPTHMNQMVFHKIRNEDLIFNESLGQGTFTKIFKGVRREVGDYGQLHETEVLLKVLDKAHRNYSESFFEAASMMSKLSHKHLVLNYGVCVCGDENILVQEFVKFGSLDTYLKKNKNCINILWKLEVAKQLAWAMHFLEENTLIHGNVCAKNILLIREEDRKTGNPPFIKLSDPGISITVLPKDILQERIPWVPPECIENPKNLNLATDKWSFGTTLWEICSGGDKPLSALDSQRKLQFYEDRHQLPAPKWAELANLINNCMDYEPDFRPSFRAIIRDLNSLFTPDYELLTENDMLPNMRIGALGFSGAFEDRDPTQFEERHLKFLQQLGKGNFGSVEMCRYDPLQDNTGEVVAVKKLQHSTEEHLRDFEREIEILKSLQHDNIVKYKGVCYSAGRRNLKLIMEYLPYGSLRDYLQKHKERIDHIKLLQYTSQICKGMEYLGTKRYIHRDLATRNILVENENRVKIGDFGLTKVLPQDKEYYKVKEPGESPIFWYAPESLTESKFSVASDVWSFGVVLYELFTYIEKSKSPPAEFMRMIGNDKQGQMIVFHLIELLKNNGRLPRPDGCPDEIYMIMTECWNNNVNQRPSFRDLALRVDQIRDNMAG

Row | SMILES | IC50 ([1]; ALK Kinase Inhibition) [nM] | IC50 ([2]; JAK2 Kinase Inhibition) [nM] | IC50 [1, 3] [nM] | IC50 [2, 4] [nM]
1 | COCCN1CCc2ccc(Nc3ncc4ccc(-c5ccccc5OC)n4n3)cc2CC1 [Example 30, [3-(2-Methoxy-ethyl)-2,3,4,5-tetrahydro-1H-benzo[d]azepin-7-yl]-[7-(2-methoxy-phenyl)-pyrrolo[2,1-f][1,2,4]triazin-2-yl]-amine] | < 100 | < 100 | – | –
2 | CN1CCN(C2CCCN(c3ccc(Nc4ncc5ccc(-c6cccnc6)n5n4)cc3)C2)CC1 (centres unmarked) [Example 352, {4-[3-(4-Methyl-piperazin-1-yl)-piperidin-1-yl]-phenyl}-(7-pyridin-3-yl-pyrrolo[2,1-f][1,2,4]triazin-2-yl)-amine] | 100 to 1000 | < 100 | – | –
3 | COc1cc(N2CCC(N3CCOCC3)CC2)ccc1Nc1ncc2ccc(-c3ccccc3S(C)(=O)=O)n2n1 [Example 540, [7-(2-Methanesulfonyl-phenyl)-pyrrolo[2,1-f][1,2,4]triazin-2-yl]-[2-methoxy-4-(4-morpholin-4-yl-piperidin-1-yl)-phenyl]-amine] | – | – | 1000 to 10000 | 1000 to 10000
4 | CN(c1ccccc1-c1ccc2cnc(Nc3cccnc3)nn12)S(C)(=O)=O [Example 1361, N-Methyl-N-{2-[2-(pyridin-3-ylamino)-pyrrolo[2,1-f][1,2,4]triazin-7-yl]-phenyl}-methanesulfonamide] | – | – | 1000 to 10000 | < 100
5 | COc1ccc(CN2CCN(C)CC2)cc1Nc1ncc2ccc(-c3ccccc3OC)n2n1 [Example 495, [2-Methoxy-5-(4-methyl-piperazin-1-ylmethyl)-phenyl]-[7-(2-methoxy-phenyl)-pyrrolo[2,1-f][1,2,4]triazin-2-yl]-amine] | – | – | 1000 to 10000 | < 100
6 | COc1ccc(-c2ccc3cnc(Nc4ccc5c(c4)CN(CC(N)=O)C5)nn23)cn1 [Example 926, 2-{5-[7-(6-Methoxy-pyridin-3-yl)-pyrrolo[2,1-f][1,2,4]triazin-2-ylamino]-1,3-dihydro-isoindol-2-yl}-acetamide] | – | – | 1000 to 10000 | < 100
7 | COc1cc(C2CCN(CC(=O)NC(CO)CO)CC2)ccc1Nc1ncc2ccc(-c3ccccc3OC)n2n1 [Example 1279, N-(2-Hydroxy-1-hydroxymethyl-ethyl)-2-(4-{3-methoxy-4-[7-(2-methoxy-phenyl)-pyrrolo[2,1-f][1,2,4]triazin-2-ylamino]-phenyl}-piperidin-1-yl)-acetamide] | – | – | < 100 | 100 to 1000
8 | CS(=O)(=O)Nc1ccc(-c2ccc3cnc(Nc4cccc(N5CCOCC5)c4)nn23)cc1 [Example 182, N-{4-[2-(3-Morpholin-4-yl-phenylamino)-pyrrolo[2,1-f][1,2,4]triazin-7-yl]-phenyl}-methanesulfonamide] | 100 to 1000 | < 100 | – | –
9 | CN1Cc2ccc(Nc3ncc4ccc(-c5cccc(S(=O)(=O)NC(C)(C)C)c5)n4n3)cc2C1 [Example 936, N-tert-Butyl-3-[2-(2-methyl-2,3-dihydro-1H-isoindol-5-ylamino)-pyrrolo[2,1-f][1,2,4]triazin-7-yl]-benzenesulfonamide] | – | – | 100 to 1000 | < 100
10 | COc1cc(CN2CCN(C[C@@H](O)CO)CC2)ccc1Nc1ncc2ccc(-c3ccccc3N(C)S(C)(=O)=O)n2n1 [Example 1228, N-[2-(2-{4-[4-((R)-2,3-Dihydroxy-propyl)-piperazin-1-ylmethyl]-2-methoxy-phenylamino}-pyrrolo[2,1-f][1,2,4]triazin-7-yl)-phenyl]-N-methyl-methanesulfonamide] | – | – | < 100 | 100 to 1000
11 | CN(c1ccccc1-c1ccc2cnc(Nc3ccc4cn[nH]c4c3)nn12)S(C)(=O)=O [Example 1337, N-{2-[2-(1H-Indazol-6-ylamino)-pyrrolo[2,1-f][1,2,4]triazin-7-yl]-phenyl}-N-methyl-methanesulfonamide] | – | – | 100 to 1000 | < 100
12 | O=S(=O)(c1cccc(-c2ccc3cnc(Nc4ccc5nc(CO)[nH]c5c4)nn23)c1)N1CCOCC1 [Example 1068, (6-{7-[3-(Morpholine-4-sulfonyl)-phenyl]-pyrrolo[2,1-f][1,2,4]triazin-2-ylamino}-1H-benzoimidazol-2-yl)-methanol] | – | – | 1000 to 10000 | < 100
13 | CS(=O)(=O)Nc1cccc(-c2ccc3cnc(Nc4ccc(N5CCC(N6CCOCC6)CC5)cc4)nn23)c1 [Example 636, N-(3-{2-[4-(4-Morpholin-4-yl-piperidin-1-yl)-phenylamino]-pyrrolo[2,1-f][1,2,4]triazin-7-yl}-phenyl)-methanesulfonamide] | – | – | 100 to 1000 | < 100
14 | Cc1cc(Nc2ncc3ccc(-c4ccc(S(C)(=O)=O)cc4)n3n2)ccc1C1CCN(CC(N)=O)CC1 [Example 949, 2-(4-{4-[7-(4-Methanesulfonyl-phenyl)-pyrrolo[2,1-f][1,2,4]triazin-2-ylamino]-2-methyl-phenyl}-piperidin-1-yl)-acetamide] | – | – | < 100 | < 100
15 | COc1ccc(-c2ccc3cnc(Nc4ccc5c(c4)CCN(C)C5)nn23)cn1 [Example 919, [7-(6-Methoxy-pyridin-3-yl)-pyrrolo[2,1-f][1,2,4]triazin-2-yl]-(2-methyl-1,2,3,4-tetrahydro-isoquinolin-6-yl)-amine] | – | – | 100 to 1000 | < 100
16 | CC(=O)Nc1cc(Nc2ncc3ccc(-c4cccc(Cl)c4)n3n2)ccc1C(C)(C)C [Example 307, N-{2-tert-Butyl-5-[7-(3-chloro-phenyl)-pyrrolo[2,1-f][1,2,4]triazin-2-ylamino]-phenyl}-acetamide] | > 10000 | < 100 | – | –
17 | CC1(C)C(=O)Nc2cc(Nc3ncc4ccc(-c5cccc(N6CCCS6(=O)=O)c5)n4n3)ccc21 [Example 1510, 6-({7-[3-(1,1-Dioxido-1,2-thiazolidin-2-yl)phenyl]pyrrolo[2,1-f][1,2,4]triazin-2-yl}amino)-3,3-dimethyl-1,3-dihydro-2H-indol-2-one] | 1000 to 10000 | < 100 | – | –
18 | COc1ccccc1-c1ccc2cnc(Nc3cc4c(cc3F)CCC(=O)N4)nn12 [Example 922, 6-Fluoro-7-[7-(2-methoxy-phenyl)-pyrrolo[2,1-f][1,2,4]triazin-2-ylamino]-3,4-dihydro-1H-quinolin-2-one] | – | – | 1000 to 10000 | < 100
19 | CN1CCN(c2ccc(Nc3ncc4ccc(-c5cccc(CCC#N)c5)n4n3)cc2)CC1 [Example 1142, 3-(3-{2-[4-(4-Methyl-piperazin-1-yl)-phenylamino]-pyrrolo[2,1-f][1,2,4]triazin-7-yl}-phenyl)-propionitrile] | – | – | < 100 | < 100
20 | COc1cc(C2CCN(CC(N)=O)CC2)ccc1Nc1ncc2cc(C)c(-c3ccccc3N(C)S(C)(=O)=O)n2n1 [Example 515, 2-[4-(4-{7-[2-(Methanesulfonyl-methyl-amino)-phenyl]-6-methyl-pyrrolo[2,1-f][1,2,4]triazin-2-ylamino}-3-methoxy-phenyl)-piperidin-1-yl]-acetamide] | – | – | 1000 to 10000 | 1000 to 10000
21 | CN1CCN(Cc2nc3cc(Nc4ncc5ccc(-c6cccc(S(C)(=O)=O)c6)n5n4)ccc3[nH]2)CC1 [Example 1538, [7-(3-Methanesulfonyl-phenyl)-pyrrolo[2,1-f][1,2,4]triazin-2-yl]-[2-(4-methyl-piperazin-1-ylmethyl)-1H-benzimidazol-5-yl]-amine] | 100 to 1000 | < 100 | – | –
22 | O=S1(=O)CCCN1c1cccc(-c2ccc3cnc(Nc4cccc(-n5cccn5)c4)nn23)c1 [Example 1506, 7-[3-(1,1-Dioxido-1,2-thiazolidin-2-yl)phenyl]-N-[3-(1H-pyrazol-1-yl)phenyl]pyrrolo[2,1-f][1,2,4]triazin-2-amine] | > 10000 | < 100 | – | –
23 | CCS(=O)(=O)Nc1cccc(-c2ccc3cnc(Nc4ccc(N5CCN(C)CC5)cc4)nn23)c1 [Example 415, Ethanesulfonic acid (3-{2-[4-(4-methyl-piperazin-1-yl)-phenylamino]-pyrrolo[2,1-f][1,2,4]triazin-7-yl}-phenyl)-amide] | 100 to 1000 | < 100 | – | –
24 | NC(=O)CN1CCC(c2ccc(Nc3ncc4ccc(C5=CCNCC5)n4n3)cc2)CC1 [Example 664, 2-(4-{4-[7-(1,2,3,6-Tetrahydro-pyridin-4-yl)-pyrrolo[2,1-f][1,2,4]triazin-2-ylamino]-phenyl}-piperidin-1-yl)-acetamide] | – | – | 100 to 1000 | < 100
25 | CN1CCN(C(=O)c2ccc(Nc3ncc4ccc(-c5ccccc5N(C)S(C)(=O)=O)n4n3)cc2)CC1 [Example 1425, N-Methyl-N-(2-{2-[4-(4-methyl-piperazine-1-carbonyl)-phenylamino]-pyrrolo[2,1-f][1,2,4]triazin-7-yl}-phenyl)-methanesulfonamide] | 100 to 1000 | < 100 | – | –
26 | COc1cc(N2CCC[C@H](CN3CCN(C)CC3)C2)ccc1Nc1ncc2ccc(-c3ccccc3OC)n2n1 [Example 466, {2-Methoxy-4-[(R)-3-(4-methyl-piperazin-1-ylmethyl)-piperidin-1-yl]-phenyl}-[7-(2-methoxy-phenyl)-pyrrolo[2,1-f][1,2,4]triazin-2-yl]-amine] | < 100 | 100 to 1000 | – | –
27 | COc1cc(CN2CCN(C(=O)CN)CC2)ccc1Nc1ncc2ccc(-c3ccccc3N(C)S(C)(=O)=O)n2n1 [Example 1241, N-[2-(2-{4-[4-(2-Amino-acetyl)-piperazin-1-ylmethyl]-2-methoxy-phenylamino}-pyrrolo[2,1-f][1,2,4]triazin-7-yl)-phenyl]-N-methyl-methanesulfonamide] | – | – | < 100 | 1000 to 10000
28 | COc1ccccc1-c1ccc2cnc(Nc3cn(CC(=O)N4CCOCC4)cn3)nn12 [Example 1113, 2-{4-[7-(2-Methoxy-phenyl)-pyrrolo[2,1-f][1,2,4]triazin-2-ylamino]-imidazol-1-yl}-1-morpholin-4-yl-ethanone] | – | – | 1000 to 10000 | < 100
